Data reported in the supplement of paper PMC9663587.

What was measured:
[1] = compound: CCN1CCN(Cc2ccc(Nc3ncc(F)c(-c4cc(F)c5nc(C)n(C(C)C)c5c4)n3)nc2)CC1; assay: increase in dead-cell fraction, 72 h; higher = more death;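 further: breast cancer cell lines in 384-well plates, stained with Hoechst plus LIVE/DEAD far red dye and imaged, cells above an LDR intensity threshold counted dead, Hoechst-negative corpses included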
Flavopiridol [2] = compound: T1, CN1CC[C@H](c2c(O)cc(O)c3c(=O)cc(-c4ccccc4Cl)oc23)[C@H](O)C1 [Flavopiridol]; assay: as above
THZ531 = compound: CN(C)C/C=C/C(=O)Nc1ccc(C(=O)N2CCC[C@@H](Nc3ncc(Cl)c(-c4c[nH]c5ccccc45)n3)C2)cc1 [THZ531]; assay: GR value, 72 h; higher = faster growth (1 = untreated, <0 = killing);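 further: breast cancer and non-malignant breast epithelial lines, nine half-log doses, viable cells counted by Hoechst and LIVE/DEAD dye imaging versus time-zero plates and DMSO controls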
Neratinib/HKI272 = compound: CCOc1cc2ncc(C#N)c(Nc3ccc(OCc4ccccn4)c(Cl)c3)c2cc1NC(=O)/C=C/CN(C)C [Neratinib/HKI272]; assay: as above
[3] = compound: CCN1CCN(Cc2ccc(Nc3ncc(F)c(-c4cc(F)c5nc(C)n(C(C)C)c5c4)n3)nc2)CC1; assay: as above
[4] = compound: CCc1cnn2c(NCc3ccc[n+]([O-])c3)cc(N3CCCC[C@H]3CCO)nc12; assay: as above
THZ1 = compound: CN(C)C/C=C/C(=O)Nc1ccc(C(=O)Nc2cccc(Nc3ncc(Cl)c(-c4c[nH]c5ccccc45)n3)c2)cc1 [THZ1]; assay: as above
Flavopiridol [5] = compound: T1, Flavopiridol; assay: as above
BSJ-03-123 = compound: CC(=O)c1c(C)c2cnc(Nc3ccc(N4CCN(CCOCCOCCOCCNC(=O)COc5cccc6c5C(=O)N(C5CCC(=O)NC5=O)C6=O)CC4)cn3)nc2n(C2CCCC2)c1=O [BSJ-03-123]; assay: as above
[6] = compound: CC(=O)c1c(C)c2cnc(Nc3ccc(N4CCNCC4)cn3)nc2n(C2CCCC2)c1=O; assay: as above
LEE011/Ribociclib = compound: CN(C)C(=O)c1cc2cnc(Nc3ccc(N4CCNCC4)cn3)nc2n1C1CCCC1 [LEE011/Ribociclib]; assay: as above
YKL-5-124 = compound: C=CC(=O)Nc1ccc(C(=O)Nc2[nH]nc3c2CN(C(=O)N[C@H](CN(C)C)c2ccccc2)C3(C)C)cc1 [YKL-5-124]; assay: as above

For MDAMB453, the “increase in dead-cell fraction” value ([1]; 0.001 µM) was 0.0151, the “increase in dead-cell fraction” value ([1]; 0.003162 µM) was 0.0243 and the “increase in dead-cell fraction” value ([1]; 0.01 µM) was 0.117. The “increase in dead-cell fraction” value ([1]; 0.03162 µM) was 0.134, the “increase in dead-cell fraction” value ([1]; 0.1 µM) was 0.124 and the “increase in dead-cell fraction” value ([1]; 0.3162 µM) was 0.104. For the same cell line, the “increase in dead-cell fraction” value ([1]; 1 µM) was 0.15, the “increase in dead-cell fraction” value ([1]; 3.162 µM) was 0.147 and the “increase in dead-cell fraction” value ([1]; 10 µM) was 0.626. The “increase in dead-cell fraction” value (Flavopiridol [2]; 0.0001 µM) was -0.0017, the “increase in dead-cell fraction” value (Flavopiridol [2]; 0.0003162 µM) was -0.0022 and the “increase in dead-cell fraction” value (Flavopiridol [2]; 0.001 µM) was -0.0038. For the same cell line, the “increase in dead-cell fraction” value (Flavopiridol [2]; 0.003162 µM) was -0.0016, the “increase in dead-cell fraction” value (Flavopiridol [2]; 0.01 µM) was -0.0001 and the “increase in dead-cell fraction” value (Flavopiridol [2]; 0.03162 µM) was -0.0034. For the same cell line, the “increase in dead-cell fraction” value (Flavopiridol [2]; 0.1 µM) was 0.0018, the “increase in dead-cell fraction” value (Flavopiridol [2]; 0.3162 µM) was 0.0317 and the “increase in dead-cell fraction” value (Flavopiridol [2]; 1 µM) was 0.168. It also gave a GR value (THZ531; 0.0001 µM) of 1.1 GR, a GR value (THZ531; 0.0003162 µM) of 0.965 GR and a GR value (THZ531; 0.001 µM) of 0.877 GR. It also gave a GR value (THZ531; 0.003162 µM) of 0.996 GR, a GR value (THZ531; 0.01 µM) of 0.851 GR and a GR value (THZ531; 0.03162 µM) of 0.38 GR. It also gave a GR value (THZ531; 0.1 µM) of -0.333 GR, a GR value (THZ531; 0.3162 µM) of -0.27 GR and a GR value (THZ531; 1 µM) of -0.266 GR. It also gave a GR value (Neratinib/HKI272; 0.0003162 µM) of 0.988 GR, a GR value (Neratinib/HKI272; 0.001 µM) of 0.937 GR and a GR value (Neratinib/HKI272; 0.003162 µM) of 0.825 GR. It also gave a GR value (Neratinib/HKI272; 0.01 µM) of 0.596 GR, a GR value (Neratinib/HKI272; 0.03162 µM) of 0.44 GR and a GR value (Neratinib/HKI272; 0.1 µM) of 0.366 GR. It also gave a GR value (Neratinib/HKI272; 0.3162 µM) of 0.139 GR, a GR value (Neratinib/HKI272; 1 µM) of -0.0602 GR and a GR value (Neratinib/HKI272; 3.162 µM) of -0.339 GR. It also gave a GR value ([3]; 0.001 µM) of 0.908 GR, a GR value ([3]; 0.003162 µM) of 0.615 GR and a GR value ([3]; 0.01 µM) of 0.211 GR. It also gave a GR value ([3]; 0.03162 µM) of 0.0514 GR, a GR value ([3]; 0.1 µM) of 0.0343 GR and a GR value ([3]; 0.3162 µM) of 0.0775 GR. For the same cell line, the GR value ([3]; 1 µM) was 0.0548 GR, the GR value ([3]; 3.162 µM) was 0.0127 GR and the GR value ([3]; 10 µM) was -0.787 GR. It also gave a GR value ([4]; 0.0001 µM) of 1.05 GR, a GR value ([4]; 0.0003162 µM) of 1.06 GR and a GR value ([4]; 0.001 µM) of 1.04 GR. For the same cell line, the GR value ([4]; 0.003162 µM) was 1.03 GR, the GR value ([4]; 0.01 µM) was 0.645 GR and the GR value ([4]; 0.03162 µM) was -0.173 GR. The GR value ([4]; 0.1 µM) was -0.28 GR, the GR value ([4]; 0.3162 µM) was -0.238 GR and the GR value ([4]; 1 µM) was -0.242 GR. It also gave a GR value (THZ1; 0.0001 µM) of 1 GR, a GR value (THZ1; 0.0003162 µM) of 0.935 GR and a GR value (THZ1; 0.001 µM) of 1.04 GR. For the same cell line, the GR value (THZ1; 0.003162 µM) was 0.716 GR, the GR value (THZ1; 0.01 µM) was 0.61 GR and the GR value (THZ1; 0.03162 µM) was 0.0146 GR. The GR value (THZ1; 0.1 µM) was -0.0991 GR, the GR value (THZ1; 0.3162 µM) was -0.106 GR and the GR value (THZ1; 1 µM) was -0.277 GR. It also gave a GR value (Flavopiridol [5]; 0.0001 µM) of 1.06 GR, a GR value (Flavopiridol [5]; 0.0003162 µM) of 1.04 GR and a GR value (Flavopiridol [5]; 0.001 µM) of 0.944 GR. The GR value (Flavopiridol [5]; 0.003162 µM) was 0.819 GR, the GR value (Flavopiridol [5]; 0.01 µM) was 0.916 GR and the GR value (Flavopiridol [5]; 0.03162 µM) was 1.05 GR. It also gave a GR value (Flavopiridol [5]; 0.1 µM) of 0.671 GR, a GR value (Flavopiridol [5]; 0.3162 µM) of 0.0173 GR and a GR value (Flavopiridol [5]; 1 µM) of -0.186 GR. For the same cell line, the GR value (BSJ-03-123; 0.001 µM) was 0.989 GR, the GR value (BSJ-03-123; 0.003162 µM) was 0.922 GR and the GR value (BSJ-03-123; 0.01 µM) was 0.874 GR. For the same cell line, the GR value (BSJ-03-123; 0.03162 µM) was 0.843 GR, the GR value (BSJ-03-123; 0.1 µM) was 0.841 GR and the GR value (BSJ-03-123; 0.3162 µM) was 0.699 GR. For the same cell line, the GR value (BSJ-03-123; 1 µM) was 0.639 GR, the GR value (BSJ-03-123; 3.162 µM) was 0.575 GR and the GR value (BSJ-03-123; 10 µM) was -0.011 GR. For the same cell line, the GR value ([6]; 0.0003162 µM) was 1.08 GR, the GR value ([6]; 0.001 µM) was 1.06 GR and the GR value ([6]; 0.003162 µM) was 0.994 GR. It also gave a GR value ([6]; 0.01 µM) of 0.851 GR, a GR value ([6]; 0.03162 µM) of 0.607 GR and a GR value ([6]; 0.1 µM) of 0.278 GR. For the same cell line, the GR value ([6]; 0.3162 µM) was 0.105 GR, the GR value ([6]; 1 µM) was 0.0968 GR and the GR value ([6]; 3.162 µM) was 0.0641 GR. The GR value (LEE011/Ribociclib; 0.001 µM) was 0.717 GR, the GR value (LEE011/Ribociclib; 0.003162 µM) was 0.647 GR and the GR value (LEE011/Ribociclib; 0.01 µM) was 0.562 GR. For the same cell line, the GR value (LEE011/Ribociclib; 0.03162 µM) was 0.637 GR, the GR value (LEE011/Ribociclib; 0.1 µM) was 0.461 GR and the GR value (LEE011/Ribociclib; 0.3162 µM) was 0.365 GR. It also gave a GR value (LEE011/Ribociclib; 1 µM) of 0.273 GR, a GR value (LEE011/Ribociclib; 3.162 µM) of 0.225 GR and a GR value (LEE011/Ribociclib; 10 µM) of 0.208 GR. The GR value (YKL-5-124; 0.001 µM) was 0.574 GR, the GR value (YKL-5-124; 0.003162 µM) was 0.333 GR and the GR value (YKL-5-124; 0.01 µM) was 0.209 GR. For the same cell line, the GR value (YKL-5-124; 0.03162 µM) was 0.209 GR, the GR value (YKL-5-124; 0.1 µM) was 0.143 GR and the GR value (YKL-5-124; 0.3162 µM) was 0.0956 GR. It also gave a GR value (YKL-5-124; 1 µM) of 0.128 GR, a GR value (YKL-5-124; 3.162 µM) of 0.143 GR and a GR value (YKL-5-124; 10 µM) of -0.503 GR.
